In ChEMBL document CHEMBL3885861, “Open TG-GATES”:

Species: Rattus norvegicus
Assay: Open TG-GATES - Regimen: Daily Repeat
Type: toxicity, organism-based, Sprague-Dawley
Design: regimen Daily Repeat, gender Male, age 6 weeks
Settings: in vivo, po, 0 mg/kg, route gavage, dose level Control; for APTT / Bas / Eos / Fbg / Hb / Ht / Lym / MCH / MCHC / MCV / Mono / Neu / PT / Plat / RBC / Ret / WBC: tissue Blood; for KIDNEY_L / KIDNEY_R / KIDNEY_TOTAL: tissue Kidney; for LIVER: tissue Liver; for A/G / ALP / ALT / AST / BUN / CRE / Ca / Cl / DBIL / GLC / IP / K / LDH / Na / PL / RALB / TBIL / TC / TG / TP / gamma-GTP: tissue Plasma

C[C@H]1O[C@H](O[C@H]2[C@H](O)[C@@H](O)[C@@H](O[C@H]3[C@H](O)[C@@H](O)C(O)O[C@@H]3CO)O[C@@H]2CO)[C@H](O)[C@@H](O)[C@@H]1N[C@H]1C=C(CO)[C@@H](O)[C@H](O)[C@H]1O (some centres not stated) [ACARBOSE]
TERMINAL_BW (72 h, time 3 day): 228.3 g
APTT (72 h, time 3 day): 16.7 s
Bas (72 h, time 3 day): 0%
Eos (72 h, time 3 day): 1.2%
Fbg (72 h, time 3 day): 274.6 mg/dL
Hb (72 h, time 3 day): 13.7 g/dL
Ht (72 h, time 3 day): 41.3%
Lym (72 h, time 3 day): 73.2%
MCH (72 h, time 3 day): 21.7 pg
MCHC (72 h, time 3 day): 33.1%
MCV (72 h, time 3 day): 65.4 fL
Mono (72 h, time 3 day): 3.2%
Neu (72 h, time 3 day): 21.4%
PT (72 h, time 3 day): 13 s
Plat (72 h, time 3 day): 129.5 x10_4/uL
RBC (72 h, time 3 day): 632.2 x10_4/ul
Ret (72 h, time 3 day): 7%
WBC (72 h, time 3 day): 102.7 x10_2/uL
KIDNEY_L (72 h, time 3 day): 1 g
KIDNEY_R (72 h, time 3 day): 1 g
KIDNEY_TOTAL (72 h, time 3 day): 2 g
LIVER (72 h, time 3 day): 10.3 g
A/G (72 h, time 3 day): 0.9
ALP (72 h, time 3 day): 1816 IU/L
ALT (72 h, time 3 day): 42.4 IU/L
AST (72 h, time 3 day): 71 IU/L
BUN (72 h, time 3 day): 14 mg/dL
CRE (72 h, time 3 day): 0.2 mg/dL
Ca (72 h, time 3 day): 10.8 mg/dL
Cl (72 h, time 3 day): 104.2 meq/L
DBIL (72 h, time 3 day): 0.006 mg/dL
GLC (72 h, time 3 day): 173 mg/dL
IP (72 h, time 3 day): 7.5 mg/dL
K (72 h, time 3 day): 4 meq/L
LDH (72 h, time 3 day): 86.2 IU/L
Na (72 h, time 3 day): 140.6 meq/L
PL (72 h, time 3 day): 144.8 mg/dL
RALB (72 h, time 3 day): 2.6 g/dL
TBIL (72 h, time 3 day): 0.054 mg/dL
TC (72 h, time 3 day): 71.6 mg/dL
TG (72 h, time 3 day): 99 mg/dL
TP (72 h, time 3 day): 5.5 g/dL
gamma-GTP (72 h, time 3 day): 1 IU/L
TERMINAL_BW ([…], time 7 day): 273.8 g
TERMINAL_BW ([…], time 14 day): 316.7 g
TERMINAL_BW ([…], time 28 day): 390.9 g
APTT ([…], time 7 day): 18 s
Bas ([…], time 7 day): 0.2%
Eos ([…], time 7 day): 0.8%
Fbg ([…], time 7 day): 296.6 mg/dL
Hb ([…], time 7 day): 13.9 g/dL
Ht ([…], time 7 day): 41.6%
Lym ([…], time 7 day): 77.2%
MCH ([…], time 7 day): 21.3 pg
MCHC ([…], time 7 day): 33.3%
MCV ([…], time 7 day): 63.9 fL
Mono ([…], time 7 day): 2.6%
Neu ([…], time 7 day): 18.6%
PT ([…], time 7 day): 12.8 s
Plat ([…], time 7 day): 129.4 x10_4/uL
RBC ([…], time 7 day): 652.4 x10_4/ul
Ret ([…], time 7 day): 6.5%
WBC ([…], time 7 day): 89.4 x10_2/uL
APTT ([…], time 14 day): 22.2 s
Bas ([…], time 14 day): 0%
Eos ([…], time 14 day): 0.8%
Fbg ([…], time 14 day): 287.8 mg/dL
Hb ([…], time 14 day): 14.6 g/dL
Ht ([…], time 14 day): 43.2%
Lym ([…], time 14 day): 76%
MCH ([…], time 14 day): 20.3 pg
MCHC ([…], time 14 day): 33.8%
MCV ([…], time 14 day): 60.1 fL
Mono ([…], time 14 day): 2%
Neu ([…], time 14 day): 20%
PT ([…], time 14 day): 13.1 s
Plat ([…], time 14 day): 124.4 x10_4/uL
RBC ([…], time 14 day): 720 x10_4/ul
Ret ([…], time 14 day): 4.4%
WBC ([…], time 14 day): 107.6 x10_2/uL
APTT ([…], time 28 day): 20.5 s
Bas ([…], time 28 day): 0%
Eos ([…], time 28 day): 1.6%
Fbg ([…], time 28 day): 283.4 mg/dL
Hb ([…], time 28 day): 15.9 g/dL
Ht ([…], time 28 day): 45.7%
Lym ([…], time 28 day): 79.6%
MCH ([…], time 28 day): 19.9 pg
MCHC ([…], time 28 day): 34.8%
MCV ([…], time 28 day): 57.2 fL
Mono ([…], time 28 day): 2%
Neu ([…], time 28 day): 16.2%
PT ([…], time 28 day): 13.3 s
Plat ([…], time 28 day): 103.4 x10_4/uL
RBC ([…], time 28 day): 799.4 x10_4/ul
Ret ([…], time 28 day): 2.2%
WBC ([…], time 28 day): 93.1 x10_2/uL
KIDNEY_L ([…], time 7 day): 1.1 g
KIDNEY_R ([…], time 7 day): 1.1 g
KIDNEY_TOTAL ([…], time 7 day): 2.3 g
KIDNEY_L ([…], time 14 day): 1.1 g
KIDNEY_R ([…], time 14 day): 1.2 g
KIDNEY_TOTAL ([…], time 14 day): 2.3 g
KIDNEY_L ([…], time 28 day): 1.4 g
KIDNEY_R ([…], time 28 day): 1.3 g
KIDNEY_TOTAL ([…], time 28 day): 2.7 g
LIVER ([…], time 7 day): 13.2 g
LIVER ([…], time 14 day): 13.2 g
LIVER ([…], time 28 day): 15 g
A/G ([…], time 7 day): 0.8
ALP ([…], time 7 day): 1472.4 IU/L
ALT ([…], time 7 day): 38.4 IU/L
AST ([…], time 7 day): 66.6 IU/L
BUN ([…], time 7 day): 16.4 mg/dL
CRE ([…], time 7 day): 0.2 mg/dL
Ca ([…], time 7 day): 11 mg/dL
Cl ([…], time 7 day): 103.6 meq/L
DBIL ([…], time 7 day): 0.004 mg/dL
GLC ([…], time 7 day): 173.8 mg/dL
IP ([…], time 7 day): 8.1 mg/dL
K ([…], time 7 day): 3.8 meq/L
LDH ([…], time 7 day): 83.8 IU/L
Na ([…], time 7 day): 142.4 meq/L
PL ([…], time 7 day): 160.4 mg/dL
RALB ([…], time 7 day): 2.7 g/dL
TBIL ([…], time 7 day): 0.052 mg/dL
TC ([…], time 7 day): 83.2 mg/dL
TG ([…], time 7 day): 115.6 mg/dL
TP ([…], time 7 day): 5.8 g/dL
gamma-GTP ([…], time 7 day): 1 IU/L
A/G ([…], time 14 day): 0.8
ALP ([…], time 14 day): 1741.6 IU/L
ALT ([…], time 14 day): 42.6 IU/L
AST ([…], time 14 day): 72.2 IU/L
BUN ([…], time 14 day): 16 mg/dL
CRE ([…], time 14 day): 0.2 mg/dL
Ca ([…], time 14 day): 10.6 mg/dL
Cl ([…], time 14 day): 105.8 meq/L
DBIL ([…], time 14 day): 0.014 mg/dL
GLC ([…], time 14 day): 188 mg/dL
IP ([…], time 14 day): 6.4 mg/dL
K ([…], time 14 day): 4.1 meq/L
LDH ([…], time 14 day): 74.6 IU/L
Na ([…], time 14 day): 142 meq/L
PL ([…], time 14 day): 161.4 mg/dL
RALB ([…], time 14 day): 2.7 g/dL
TBIL ([…], time 14 day): 0.048 mg/dL
TC ([…], time 14 day): 74.4 mg/dL
TG ([…], time 14 day): 182.4 mg/dL
TP ([…], time 14 day): 6 g/dL
gamma-GTP ([…], time 14 day): 1 IU/L
A/G ([…], time 28 day): 0.8
ALP ([…], time 28 day): 1131.6 IU/L
ALT ([…], time 28 day): 43.4 IU/L
AST ([…], time 28 day): 69.6 IU/L
BUN ([…], time 28 day): 17.2 mg/dL
CRE ([…], time 28 day): 0.2 mg/dL
Ca ([…], time 28 day): 10.8 mg/dL
Cl ([…], time 28 day): 104.4 meq/L
DBIL ([…], time 28 day): 0.014 mg/dL
GLC ([…], time 28 day): 184.8 mg/dL
IP ([…], time 28 day): 6.4 mg/dL
K ([…], time 28 day): 4.2 meq/L
LDH ([…], time 28 day): 121 IU/L
Na ([…], time 28 day): 141.6 meq/L
PL ([…], time 28 day): 146.6 mg/dL
RALB ([…], time 28 day): 2.8 g/dL
TBIL ([…], time 28 day): 0.056 mg/dL
TC ([…], time 28 day): 66.8 mg/dL
TG ([…], time 28 day): 158.2 mg/dL
TP ([…], time 28 day): 6.2 g/dL
gamma-GTP ([…], time 28 day): 1 IU/L
